Measurements as given in patent US20260138958A1, “SUBSTITUTED N-PHENYLURACILS AND SALTS THEREOF, AND USE THEREOF AS HERBICIDAL ACTIVE SUBSTANCES” (Bayer Aktiengesellschaft, priority 2022, published 2026).

Tests used:
Assay type in all cases: in vivo
[1] = tested on: Abutilon theophrasti (ABUTH); test: Post-emergence herbicidal action, greenhouse pot test
Method: (§1) Seeds of monocotyledonous and dicotyledonous weeds and crop plants were placed in sandy loam in plastic or wood-fibre pots, covered with soil and cultivated in a greenhouse under controlled growth conditions. 2 to 3 weeks after sowing, the test plants were treated at the one-leaf stage. The compounds of the invention, formulated in the form of wettable powders (WP) or as emulsion concentrates (EC), were then sprayed onto the green parts of the plants as aqueous suspension or emulsion with addition of 0.5% additive at a water application rate of 600 l/ha (converted). After the test plants had been kept in the greenhouse under optimum growth conditions for about 3 weeks, the activity of the preparations was rated visually in comparison to untreated controls. For example, 100% activity=the plants have died, 0% activity=like control plants.

[2] = tested on: Alopecurus myosuroides (ALOMY); test: as above
Method: as §1

[3] = tested on: Amaranthus retroflexus (AMARE); test: as above
Method: as §1

Bassia scoparia (KCHSC) = test: as above
Method: as §1

[4] = tested on: Digitaria sanguinalis (DIGSA); test: as above
Method: as §1

[5] = tested on: Echinochloa crus-galli (ECHCG); test: as above
Method: as §1

[6] = tested on: Pharbitis purpurea (PHBPU); test: as above
Method: as §1

[7] = tested on: Polygonum convolvulus (POLCO); test: as above; conditions: 20 g/ha
Method: as §1

Setaria viridis (SETVI) = test: as above
Method: as §1

Veronica persica (VERPE) = test: as above
Method: as §1

Viola tricolor (VIOTR) = test: as above
Method: as §1

[8] = tested on: Triticum aestivum (TRZAS); test: Post-emergence crop plant compatibility, greenhouse pot test; conditions: crop plant, post-emergence, 1.25 g/ha
Method: as §1
The observed effects on selected crop plants are reported here in comparison to the untreated controls (values in %).

[9] = tested on: Tripleurospermum inodorum (MATIN); test: Post-emergence herbicidal action, greenhouse pot test
Method: as §1

Row | Compound | Post-emergence effect at 20 g/ha against ABUTH in % [1] | Post-emergence effect at 20 g/ha against ALOMY in % [2] | Post-emergence effect at 1.25 g/ha against AMARE in % [3] | Post-emergence effect at 5 g/ha against AMARE in % [3] | Post-emergence effect at 20 g/ha against AMARE in % [3] | Post-emergence effect at 5 g/ha against KCHSC in % (Bassia scoparia (KCHSC)) | Post-emergence effect at 20 g/ha against KCHSC in % (Bassia scoparia (KCHSC)) | Post-emergence effect at 20 g/ha against DIGSA in % [4] | Post-emergence effect at 5 g/ha against ECHCG in % [5] | Post-emergence effect at 20 g/ha against ECHCG in % [5] | Post-emergence effect at 5 g/ha against PHBPU in % [6] | Post-emergence effect at 20 g/ha against PHBPU in % [6] | Post-emergence effect at 20 g/ha against POLCO in % [7] | Post-emergence effect at 5 g/ha against SETVI in % (Setaria viridis (SETVI)) | Post-emergence effect at 20 g/ha against SETVI in % (Setaria viridis (SETVI)) | Post-emergence effect at 1.25 g/ha against VERPE in % (Veronica persica (VERPE)) | Post-emergence effect at 5 g/ha against VERPE in % (Veronica persica (VERPE)) | Post-emergence effect at 20 g/ha against VERPE in % (Veronica persica (VERPE)) | Post-emergence effect at 5 g/ha against VIOTR in % (Viola tricolor (VIOTR)) | Post-emergence effect at 20 g/ha against VIOTR in % (Viola tricolor (VIOTR)) | other results
1 | CC(OC(=O)COc1ccccc1Oc1cc(-n2c(=O)cc(C(F)(F)F)n(C)c2=O)c(F)cc1Cl)C1CCCCC1 (centres unmarked) [I.7-15] | 100% | 80% | 100% | 100% | 100% | 100% | 100% | 100% | 90% | 100% | 100% | 100% | 100% | 100% | 100% | 80% | 100% | 100% | 100% | 100% | Post-emergence effect at 1.25 g/ha against TRZAS in % [8]: 20%
2 | Cn1c(C(F)(F)F)cc(=O)n(-c2cc(Oc3ccccc3OCC(=O)OC3CCCCC3)c(Cl)cc2F)c1=O [a-29, reference compound] | – | – | – | – | – | – | – | – | – | – | – | – | – | – | – | – | – | – | – | – | VERPE (efficacy in %) (Veronica persica (VERPE); Table B4 comparison, application rate 1.25 g/ha): 90%
3 | Cn1c(C(F)(F)F)cc(=O)n(-c2cc(Oc3ccccc3OCC(=O)OC3CCCCCC3)c(Cl)cc2F)c1=O [reference compound] | – | – | – | – | – | – | – | – | – | – | – | – | – | – | – | – | – | – | – | – | ECHCG (efficacy in %) ([5]; Table B5 comparison, application rate 1.25 g/ha): 80%
4 | Cn1c(C(F)(F)F)cc(=O)n(-c2cc(Oc3ccccc3OCC(=O)OCC3(C)CC3)c(Cl)cc2F)c1=O [I.7-5] | 100% | 100% | 100% | 100% | 100% | 100% | 100% | 100% | 100% | 100% | 100% | 100% | 100% | 100% | 100% | 100% | 100% | 100% | 100% | 100% | Post-emergence effect at 1.25 g/ha against ABUTH in % [1]: 100%; Post-emergence effect at 5 g/ha against ABUTH in % [1]: 100%; Post-emergence effect at 5 g/ha against ALOMY in % ([2]; 5 g/ha): 80%; Post-emergence effect at 1.25 g/ha against KCHSC in % (Bassia scoparia (KCHSC)): 100%; Post-emergence effect at 5 g/ha against DIGSA in % [4]: 100%; Post-emergence effect at 1.25 g/ha against PHBPU in % [6]: 100%; Post-emergence effect at 1.25 g/ha against SETVI in % (Setaria viridis (SETVI)): 100%; Post-emergence effect at 5 g/ha against MATIN in % ([9]; 5 g/ha): 100%; Post-emergence effect at 20 g/ha against MATIN in % [9]: 100%; Post-emergence effect at 1.25 g/ha against VIOTR in % (Viola tricolor (VIOTR); 1.25 g/ha): 100%
5 | Cn1c(C(F)(F)F)cc(=O)n(-c2cc(Oc3cc(F)ccc3OCC(=O)OCC3CC3)c(Br)cc2F)c1=O [I.24-1] | 100% | – | 100% | 100% | 100% | 100% | 100% | 100% | 80% | 100% | 100% | 100% | 100% | 100% | 100% | – | 100% | 100% | 100% | 100% | Post-emergence effect at 1.25 g/ha against ABUTH in % [1]: 100%; Post-emergence effect at 5 g/ha against ABUTH in % [1]: 100%; Post-emergence effect at 1.25 g/ha against KCHSC in % (Bassia scoparia (KCHSC)): 100%; Post-emergence effect at 1.25 g/ha against DIGSA in % ([4]; 1.25 g/ha): 80%; Post-emergence effect at 5 g/ha against DIGSA in % [4]: 100%; Post-emergence effect at 1.25 g/ha against PHBPU in % [6]: 80%; Post-emergence effect at 1.25 g/ha against SETVI in % (Setaria viridis (SETVI)): 90%; Post-emergence effect at 20 g/ha against MATIN in % [9]: 80%; Post-emergence effect at 1.25 g/ha against TRZAS in % [8]: 20%
